The values below come from ChEMBL document CHEMBL3351777, “Further studies on pyrazolo[1',5':1,6]pyrimido[4,5-d]pyridazin-4(3H)-ones as potent and selective human A1 adenosine receptor antagonists” (Eur J Med Chem, 2015).

Test [1] concerns Mus musculus. As to the kind of experiment: Antiamnesic activity in Swiss albino mouse CPA-induced amnesia model assessed as time taken to enter dark compartment during training session at 3 mg/kg, ip administered 30 mins prior to session by passive avoidance test (reference value: 16.6 +/- 4.1 secs). The test is classed as functional. Conditions: route intraperitoneal.
Test [2] relates to Mus musculus. The test can be described thus: Antiamnesic activity in Swiss albino mouse CPA-induced amnesia model assessed as time taken to enter dark compartment during retention session at 3 mg/kg, ip administered 30 mins prior to session by passive avoidance test (reference value: 61.2 +/- 9.0 secs). The test is classed as functional. Conditions: route intraperitoneal.

In the case of `CCCn1c(=O)c2[nH]c(C3CCCC3)nc2n(CCC)c1=O` [1,3-DIPROPYL-8-CYCLOPENTYLXANTHINE [DPCPX]], the results for the Time with Mus musculus [1] and in the test on Mus musculus [2] were 0.275 min and 1.53 min, respectively.
